“Also recorded” adds a separate entry of the source.
Columns and labels:
ABCF1 [1] = assay: Polyubiquitination state of ABCF1 in BMDM (immunoprecipitation with anti-ABCF1, immunoblot with anti-polyubiquitin antibodies); type: cell-based, mouse
[2] = test system: bone marrow derived macrophages (BMDM); assay: Immunoblotting of BMDM lysates for protein expression and phosphorylation; type: cell-based, mouse
Procedure: (§1) Western blotting: Cell lysates were prepared as described above. All co-immunoprecipitation samples were prepared without DTT in the sample buffer, unless otherwise mentioned. All other western blot samples were prepared with DTT in the sample buffer. Lysates were electrophoresed and immunoblotted with indicated antibodies.
Cytoplasmic and Nuclear fractionation: Bone marrow macrophages were stimulated with mentioned treatments and cytoplasmic and nuclear fractionation was performed with NE-PER Nuclear and Cytoplasmic Extraction Reagents (Thermo Scientific; 78833) according to manufacturer's instructions.
as §1, with “Cell” for “Western blotting: Cell”
Bone marrow macrophages were stimulated with indicated treatments and cytoplasmic and nuclear fractionation was performed with NE-PER Nuclear and Cytoplasmic Extraction Reagents (Thermo Scientific; 78833) according to manufacturer's instructions.

ubiquitin = biological target: T1, ubiquitin (Homo sapiens, UniProt P0CG48); assay: In vitro ubiquitination assay; type: biochemical, mouse; details: with UBA1 (E1), Mg2+ and ATP, DTT sensitive
T1 construct: recombinant ABCF1, UBA1, and Ub proteins were incubated in the presence of cofactors; purchased abcam ab139467; host or cells: ubiquitin and E1 from the kit; ABCF1 immunoprecipitated from transfected mouse BMDM
Procedure: In vitro ubiquitination Assay: Abcf1WT and Abcf1C647S expression plasmids were overexpressed in macrophages as described above. Before overexpressing Abcf1C647S expression plasmid, cells were treated with Abcf1 siRNA, as described above to eliminate endogenous Abcf1 levels. Abcf1 siRNA treated cells were washed with cold PBS twice and then Abcf1C647S expression plasmid was overexpressed. Cell lysates were prepared and subjected to co-immunoprecipitation with anti ABCF1 antibody. Extend of overexpression and co-immunoprecipitation was checked by western blot. Ubiquitination Assay was performed on immunoprecipitated samples with Ubiquitylation Assay Kit (abcam; ab139467) according to manufacturer's instructions. Samples were run on a gel and blotted with anti ABCF1 and anti UB antibodies.
To confirm the finding, enzyme activity of ABCF1 was investigated in presence and absence of cofactor Mg^2+ and ATP via an in vitro ubiquitination assay. […] As thio-ester bonds mediate ubiquitin attachment to the E2 enzyme and are DTT sensitive, no such protein band was observed when samples were treated with DTT.
To confirm if the conserved cysteine at position 647 in the ABCF1 sequence is the catalytic cysteine that mediates the E2 function, in vitro ubiquitination assay was performed with Abcf1 WT and Abcf1 C647S (where the cysteine was mutated to a serine) protein constructs. […]

ABCF1 [3] = details: cited from earlier work
[4] = LPS (100 ng/ml) 30 min, SM 100 nM, Dynasore 80 μM
[5] = BMDMs treated with recombinant cytokine for 24 hours (TNFα 10 ng/ml, IL-1β 10 ng/ml, IL-10 50 ng/ml, IFNβ 10,000 IU/50 μl)
[6] = induction of hypoxia, CoCl2 100 μM for 24 hours

O=C(N/N=C/c1ccc(O)c(O)c1)c1cc2ccccc2cc1O [Dynasore]
polyubiquitin linkage of ABCF1 (ABCF1 [1]; Dynasore treatment alone): led to K48-polyubiquitination | K48-polyubiquitination of ABCF1 (ABCF1 [1]; [4]): targeted for K48-polyubiquitination; also recorded: extensively upregulated | K63-polyubiquitination of ABCF1 (ABCF1 [1]; [4]): no K63-polyubiquitination was observed; also recorded: greatly reduced

TNFα
ABCF1 expression [2, 5]: decreased

recombinant ABCF1: recombinant ABCF1 protein used in the in vitro ubiquitination assay
mass / apparent molecular weight shift of ABCF1 (Ub thioester attachment) (ubiquitin): increase in mass size; also recorded: increase in the apparent molecular weight

[Cl][Co][Cl] [CoCl2, Cobalt Chloride]
ABCF1 expression [2, 6]: decreased | HIF-1α expression [2, 6]: increased

CN(C)CCC[C@@]1(c2ccc(F)cc2)OCc2cc(C#N)ccc21 [Escitalopram]
effect on ABCF1 pathway (ABCF1 [3]): known enhancer of the ABCF1 pathway

CN[C@@H](C)C(=O)N[C@H](C(=O)N1CCC[C@H]1Cn1nnnc1Sc1ccccc1)C(C)OCC#CC#CCO[C@H](C)[C@H](NC(=O)[C@H](C)NC)C(=O)N1CCCC1Cn1nnnc1Sc1ccccc1 (stereo partly shown) [SM]
K63-polyubiquitination of ABCF1 (ABCF1 [1]; [4]): increased | polyubiquitin linkage of ABCF1 (ABCF1 [1]; LPS treatment for 10 minutes): K63-polyubiquitination of ABCF1 instead

B1: IFNβ: recombinant IFNβ (10,000 IU/50 μl) used to treat BMDMs (protein, UniProt P01575 22-182, looked up)
Interferon beta: INYKQLQLQERTNIRKCQELLEQLNGKINLTYRADFKIPMEMTEKMQKSYTAFAIQEMLQNVFLVFRNNFSSTGWNETIVVRLLDELHQQTVFLKTVLEEKQEERLTWEMSSTALHLKSYYWRVQRYLKLMKYNSYAWMVVRAEIFRNFLIIRRLTRNFQN
ABCF1 expression [2, 5]: increased

B2: IL-10: recombinant IL-10 (50 ng/ml) used to treat BMDMs (protein, UniProt P18893 19-178, looked up)
Interleukin-10: SRGQYSREDNNCTHFPVGQSHMLLELRTAFSQVKTFFQTKDQLDNILLTDSLMQDFKGYLGCQALSEMIQFYLVEVMPQAEKHGPEIKEHLNSLGEKLKTLRMRLRRCHRFLPCENKSKAVEQVKSDFNKLQDQGVYKAMNEFDIFINCIEAYMMIKMKS
ABCF1 expression [2, 5]: increased

B3: IL-1β: recombinant IL-1β (10 ng/ml) used to treat BMDMs (protein, UniProt P10749 118-269, looked up)
Interleukin-1 beta: VPIRQLHYRLRDEQQKSLVLSDPYELKALHLNGQNINQQVIFSMSFVQGEPSNDKIPVALGLKGKNLYLSCVMKDGTPTLQLESVDPKQYPKKKMEKRFVFNKIEVKSKVEFESAEFPNWYISTSQAEHKPVFLGNNSGQDIIDFTMESVSS
ABCF1 expression [2, 5]: decreased

Reference: patent US20220125876A1, “A METHOD OF IMMUNE MODULATION BY MODULATING ABCF1” (Pacific Myco Biosciences, Ltd., priority 2019, published 2022)
